Data set [1] relates to IGROV-1 human ovarian cancer cells. Nature of the data set: Apoptosis assay, annexin V and PI, flow cytometry. It is filed as cell-based. Particulars: IGROV-1, 50 or 100 μM, 24 h. As to the method: Apoptosis assays using annexin V and PI as markers were carried out to investigate possible modes of cell death. For the clinical drug cisplatin, apoptosis is the major mode of cell death. […] Other mechanisms of cell death such as ferroptosis could be investigated in future work. […]
was aspirated, cells washed in ice-cold PBS and then stained with 0.2 mg/mL RNase, 0.05 mg/mL propidium iodide (PI) in PBS for 25 min in the dark and on ice. Excess dye was removed, and cells were re-suspended in PBS. Samples were analysed by flow cytometry using the BD FACSMelody™ Cell Sorter (R653880001) and data analysis on FlowJo™ v10 Software (BD Life […]
IGROV-1 cells (1 x 106) were seeded in a 6-well plate and incubated for 24 h at 310 K. Stock solutions (200 µM) of the complexes were prepared by dissolving the compound in 5% (v/v) DMSO followed by dilution with DMEM and then diluted to desired concentrations. All complexes (50 µM and 100 µM) were added to the wells and incubated for 24 h. […] Samples were analysed by flow cytometry using the BD FACSMelody™ Cell Sorter (R653880001) and data analysis on FlowJo™ v10 Software (BD Life Sciences).9 […]
Percentage of IGROV -1 cancer cells in non -apoptotic, apoptotic (early and late) or necrotic phases determined by flow cytometry after 24 h treatment with Os/Ru L -BSO and glycine complexes. […] Standard deviations calculated for N=3. […]
In general terms: In flow cytometry, cells or beads pass a laser one at a time.

The nature of data set [2]: Aqueous stability / hydrolysis monitored by 1H NMR. It is filed as physicochemical. Particulars: 3:7 v/v methanol-d4:D2O, 310 K, 36 h, then excess NaCl (130 mM) 24 h.

The results in this text go back to article PMC12728982, “Multichiral Half-Sandwich Ru(II) and Os(II) Anticancer Complexes Containing a Glutathione Synthesis Inhibitor” (Organometallics, 2025).

Turning to [(p-cymene)Os(L-BSO)Cl] [Os-LBSO], the “Apoptosis / mode of cell death vs untreated cells” value in data set [1] was “no significant differences”. Besides, the “Hydrolysis” value in data set [2] is “does not readily hydrolyze”.
